Data as given in paper PMC5845353, “The selective cathepsin K inhibitor MIV-711 attenuates joint pathology in experimental animal models of osteoarthritis” (Journal of Translational Medicine, 2018).

Test system: rabbits subjected to anterior cruciate ligament transection (ACLT)
Assay: Rabbit ACLT study, contrast-enhanced µCT of articular cartilage
Type: in vivo
Description: The animals were acquired following review and approval by the Institutional Animal Care and Use Committee (IACUC) at Numira (Salt Lake City, UT). The protocol was also reviewed and approved by the IACUC at Ibex Preclinical Research Inc. (Logan, UT). Male, New Zealand White rabbits (n = 32) were purchased from the Western Oregon Rabbit Co. (Philomath, OR). The animals were approximately 9 months old, weighed 3.7–4.5 kg at the start of the experiment and were randomized into four treatment groups based on body weight.
Pre-operative butorphanol (0.5–1.0 mg/kg, i.m.) for analgesia and glycopyrrolate (~ 0.1 mg/kg i.m.) were administered up to 15 min prior to induction. Anesthesia was induced by a mixture of ketamine (20–40 mg/kg, i.m.) and xylazine (5–10 mg/kg, i.m.), followed by placement of an endotracheal tube. General anesthesia was maintained with isoflurane. Perioperative cefazolin (40 mg/kg, i.v.) was administered, and […] (0.2 mg/kg, i.v.) was administered to reverse the effects of xylazine after endotracheal intubation was complete. A fentanyl patch (25 µg/h) was placed on a clipped area of the skin to provide post-operative analgesia. An incision of 1.5–2.5 cm was made in the skin over the medial side of the right knee under aseptic conditions. The patella was dislocated laterally and the knee placed in full flexion. The anterior cruciate ligament (ACL) was visualized and transected with an appropriate blade. In sham animals, the ACL was visualized but not transected. The joint was irrigated with sterile saline and closed. The muscle and skin were closed with suture and/or surgical glue. Butorphanol (0.5–1 mg/kg, i.m.) was administered after extubation to provide supplemental analgesia. The animals were then individually housed in stainless steel or plastic cages.
Starting 1 week after sham operation or ACLT, animals were dosed daily for 7 weeks by oral gavage with either MIV-711 (synthesized by Medivir and given as a suspension in 1% Methocel A4C in water) or vehicle (1% Methocel A4C in water) at a dose volume of 4 mL/kg. The four treatment groups (n = 7 in each group) were: (1) sham + vehicle; (2) ACLT + vehicle; (3) ACLT + MIV-711, 30 µmol/kg (low dose) and (4) ACLT + MIV-711, 100 µmol/kg (high dose).
Femora and tibias from all animals were subjected to µCT scanning without and with contrast reagent, to visualize bone and cartilage, respectively. Samples were scanned on a high-resolution, volumetric µCT scanner (μCT40, ScanCo Medical, Zurich, CH). The image data was acquired with the following parameters: 36 μm isotropic voxel resolution at 300 ms exposure time, 2000 views and 1 frame per view. Each sample was scanned twice, once for acquiring bone data and once for soft tissue data. After the bone scans, the knees were stained using hexabrix for contrast-enhanced imaging of the cartilage. The µCT-generated DICOM files were used to analyze the samples and to create volume renderings of the regions of interest (ROI). The raw data files were converted into a file format compatible with the segmentation software VHLab (Numira). VHLab was used for segmenting out the regions of interest (osteophyte, cartilage, and subchondral bone) for the femur and tibia of each sample. A region spanning 9 mm of the articulating surface of the femur and 6.5 mm of the tibia was selected for segmenting out the cartilage and subchondral bone in the anterior–posterior direction. After the segmentation process, the voxel count associated with each of the regions of interest was calculated using VHLab. The voxel count was then multiplied by the cubic voxel resolution to obtain volume measurements for the different ROI. Cartilage thickness was calculated using SCIRun (Scientific Computing and Imaging Institute, University of Utah). The distance from the bone to the outer surface of the articulating cartilage was calculated. An image was generated that translates the distances into a color map for viewing the thickness along the length of the cartilage. […]

C#C[C@@H]1CN(C(=O)[C@H](CC(C)C)NC(=O)c2ccc(-c3nc(N4CCN(C)CC4)sc3F)cc2)[C@@H]2C(=O)CO[C@H]12 [MIV-711] was tested, and the “Cartilage Thickness, Lateral” value (Femur, high dose 100 µmol/kg) was 251 ± 12 µm, the “Cartilage Thickness, Medial” value (Femur, high dose 100 µmol/kg) was 306 ± 12 µm and the “Cartilage Thickness, Total” value (Femur, high dose 100 µmol/kg) was 278 ± 11 µm. The “Cartilage Volume, Lateral” value (Femur, high dose 100 µmol/kg) was 23.0 ± 1.1 mm^3, the “Cartilage Volume, Medial” value (Femur, high dose 100 µmol/kg) was 27.2 ± 1.6 mm^3 and the “Cartilage Volume, Total” value (Femur, high dose 100 µmol/kg) was 50.2 ± 2.2 mm^3. For the same compound, the “Cartilage Thickness, Lateral” value (Femur, low dose 30 µmol/kg) was 257 ± 13 µm, the “Cartilage Thickness, Medial” value (Femur, low dose 30 µmol/kg) was 310 ± 18 µm and the “Cartilage Thickness, Total” value (Femur, low dose 30 µmol/kg) was 283 ± 15 µm. For the same compound, the “Cartilage Volume, Lateral” value (Femur, low dose 30 µmol/kg) was 23.1 ± 1.1 mm^3, the “Cartilage Volume, Medial” value (Femur, low dose 30 µmol/kg) was 27.5 ± 2.6 mm^3 and the “Cartilage Volume, Total” value (Femur, low dose 30 µmol/kg) was 50.6 ± 3.5 mm^3. For the same compound, the “Cartilage Thickness, Lateral” value (Tibia, high dose 100 µmol/kg) was 369 ± 24 µm, the “Cartilage Thickness, Medial” value (Tibia, high dose 100 µmol/kg) was 539 ± 25 µm and the “Cartilage Thickness, Total” value (Tibia, high dose 100 µmol/kg) was 445 ± 22 µm. For the same compound, the “Cartilage Volume, Lateral” value (Tibia, high dose 100 µmol/kg) was 21.6 ± 2.0 mm^3, the “Cartilage Volume, Medial” value (Tibia, high dose 100 µmol/kg) was 25.3 ± 1.2 mm^3 and the “Cartilage Volume, Total” value (Tibia, high dose 100 µmol/kg) was 46.9 ± 3.1 mm^3. The “Cartilage Thickness, Lateral” value (Tibia, low dose 30 µmol/kg) was 349 ± 18 µm, the “Cartilage Thickness, Medial” value (Tibia, low dose 30 µmol/kg) was 533 ± 26 µm and the “Cartilage Thickness, Total” value (Tibia, low dose 30 µmol/kg) was 432 ± 20 µm. The “Cartilage Volume, Lateral” value (Tibia, low dose 30 µmol/kg) was 19.6 ± 1.3 mm^3, the “Cartilage Volume, Medial” value (Tibia, low dose 30 µmol/kg) was 24.9 ± 1.5 mm^3 and the “Cartilage Volume, Total” value (Tibia, low dose 30 µmol/kg) was 44.5 ± 2.6 mm^3.
